Patent US20260374818A1, “CATIONIC PEPTIDES WITH BROAD SPECTRUM ACTIVITY” (priority 2023, published 2026)
Read-outs that look alike come from different tables or passages of the source.

How the values were obtained:
[1] = system: P. aeruginosa PAO1 planktonic cells; test: MIC of antibiotics against planktonic cells, PAO1; assay type: cell-based, Pseudomonas aeruginosa; conditions: for MIC against planktonic cells in BM2 medium: PAO1, BM2; for MIC against planktonic cells in MHB medium: PAO1, MHB; for MIC: Pseudomonas aeruginosa
[2] = system: MRSA USA 300 LAC biofilms; test: Checkerboard biofilm synergy of AB103-D with antimicrobials, MRSA; assay type: cell-based, methicillin resistant Staphylococcus aureus; conditions: for Biofilm MBIC in 10% TSB, 0.1% glucose / Fold decrease AB103-D / Fold decrease Antibiotic: MRSA; for FIC: antibiotic used with AB103-D, MRSA USA 300 LAC, ≤0.5 synergy; for Fold decrease AB103-D: in combination of antibiotic with AB103-D; for Fold decrease Antibiotic: in combination with AB103-D
[3] = system: P. aeruginosa PAO1 biofilms; test: Checkerboard biofilm synergy of AB103-D with antimicrobials, PAO1; assay type: cell-based, Pseudomonas aeruginosa; conditions: for FIC against biofilms: antibiotic used with AB103-D, ≤0.5 synergy; for Fold Decrease in concentration of AB103-D: in combination of antibiotic with AB103-D; for Fold Decrease in concentration of AB103-D / Fold Decrease in concentration of Antibiotic: PAO1; for Fold Decrease in concentration of Antibiotic: in combination with AB103-D
[4] = system: MRSA USA 300 LAC planktonic cells; test: MIC of antibiotics against planktonic cells, MRSA; assay type: cell-based, methicillin resistant Staphylococcus aureus; conditions: for MIC in 10% TSB, 0.1% glucose / MIC in MHB medium: MRSA planktonic; for MIC: Staphylococcus aureus
[5] = antibiotic alone, at least 70% reduction
[6] = antibiotic alone, PAO1, BM2, at least 70% reduction
[7] = PAO1, read-out: MIC against planktonic cells in BM2 medium
[8] = PAO1, read-out: MIC against planktonic cells in MHB medium
[9] = read-out: MIC in 10% TSB, 0.1% glucose

SMILES	FIC [2]	Fold decrease AB103-D [2]	Fold decrease Antibiotic [2]	FIC against biofilms ([3]; PAO1, BM2)	Fold Decrease in concentration of AB103-D [3]	Fold Decrease in concentration of Antibiotic [3]	MIC [1, 7] [µg/mL]	MIC [1, 8] [µg/mL]	MIC [4, 9] [µg/mL]	MIC ([4]; read-out: MIC in MHB medium) [µg/mL]	other results
O=[N+]([O-])[O-].[Ag+] [AgNO3]	1.13	No	8-fold	1	2-fold	2-fold					MIC against planktonic cells in BM2 medium [1]: 0.03 µg/mL; MIC against planktonic cells in MHB medium [1]: 0.125 µg/mL; Biofilm MBIC in 10% TSB, 0.1% glucose [2, 5]: 0.25; Antibiotic MBIC against biofilms [3, 6]: 0.03 µg/mL; MIC in 10% TSB, 0.1% glucose ([4]; 10% TSB, 0.1% glucose): 0.25; MIC in MHB medium [4]: 0.25 µg/mL
NCC[C@H](O)C(=O)N[C@@H]1C[C@H](N)[C@@H](O[C@H]2O[C@H](CN)[C@@H](O)[C@H](O)[C@H]2O)[C@H](O)[C@H]1O[C@H]1O[C@H](CO)[C@@H](O)[C@H](N)[C@H]1O [Amikacin]	1	2-fold	2-fold	1.06	No	16-fold	4	0.5	0.5	0.5	
CC[C@H]1OC(=O)[C@H](C)[C@@H](O[C@H]2C[C@@](C)(OC)[C@@H](O)[C@H](C)O2)[C@H](C)[C@@H](O[C@@H]2O[C@H](C)C[C@H](N(C)C)[C@H]2O)[C@](C)(O)C[C@@H](C)CN(C)[C@H](C)[C@@H](O)[C@]1(C)O [Azithromycin]	0.38	8-fold	4-fold	0.75	2-fold	4-fold	128	128	4	1	
C[C@H]1[C@H](NC(=O)/C(=N\OC(C)(C)C(=O)O)c2csc(N)n2)C(=O)N1S(=O)(=O)O [Aztreonam]	0.75	4-fold	2-fold	0.56	2-fold	16-fold	8	4	> 128	> 128	
CO/N=C(\C(=O)N[C@@H]1C(=O)N2C(C(=O)[O-])=C(C[N+]3(C)CCCC3)CS[C@H]12)c1csc(N)n1 [Cefepime]	0.38	8-fold	4-fold	0.56	2-fold	16-fold	0.5	1	8	8	
CC(C)(O/N=C(\C(=O)N[C@@H]1C(=O)N2C(C(=O)[O-])=C(C[n+]3ccccc3)CS[C@H]12)c1csc(N)n1)C(=O)O [Ceftazidime]	0.5	4-fold	4-fold	0.5	4-fold	4-fold	2	1	64	32	
[H]/N=C(\N/C(=N/[H])NCCCCCCNC(=N)NC(=N)Nc1ccc(Cl)cc1)Nc1ccc(Cl)cc1 [Chlorhexidine]	0.56	2-fold	16-fold	0.63	8-fold	2-fold	4	3.12	1	0.4	
O=C(O)c1cn(C2CC2)c2cc(N3CCNCC3)c(F)cc2c1=O [Ciprofloxacin]	0.5			0.53							
CCC[C@@H]1C[C@@H](C(=O)N[C@@H]([C@H]2O[C@H](SC)[C@H](O)[C@@H](O)[C@H]2O)[C@H](C)Cl)N(C)C1 [Clindamycin]	0.635	2-fold	8-fold	1	2-fold	2-fold	> 256	> 256	0.5	0.125	
O=C(O)CN(CCN(CC(=O)O)CC(=O)O)CC(=O)O [EDTA]	0.38	4-fold	8-fold	1.02	No	64-fold					MIC against planktonic cells in BM2 medium [1]: >256 µg/mL; MIC against planktonic cells in MHB medium [1]: >256 µg/mL; Biofilm MBIC in 10% TSB, 0.1% glucose [2, 5]: 128; Antibiotic MBIC against biofilms [3, 6]: 128 µg/mL; MIC in 10% TSB, 0.1% glucose ([4]; 10% TSB, 0.1% glucose): 128; MIC in MHB medium [4]: 64 µg/mL
OO [H2O2]	0.63	8-fold	2-fold	0.5	4-fold	4-fold					MIC against planktonic cells in BM2 medium ([1]; in %): 0.08%; MIC against planktonic cells in MHB medium ([1]; in %): 0.01%; Biofilm MBIC in 10% TSB, 0.1% glucose ([2]; in %): 0.0025%; Antibiotic MBIC against biofilms ([3]; PAO1, BM2, in %): 0.08%; MIC in MHB medium ([4]; in %): 0.0018%; MIC in 10% TSB, 0.1% glucose ([4]; in %): 0.0025%
C[C@H]1COc2c(N3CCN(C)CC3)c(F)cc3c(=O)c(C(=O)O)cn1c23 [Levofloxacin]	0.75	4-fold	2-fold	0.63	2-fold	8-fold		0.25	8	4	MIC against planktonic cells in BM2 medium [1]: 0.125 µg/mL; Antibiotic MBIC against biofilms [3, 6]: 0.125 µg/mL
C[C@@H](O)[C@H]1C(=O)N2C(C(=O)O)=C(S[C@@H]3CN[C@H](C(=O)N(C)C)C3)[C@H](C)[C@H]12 [Meropenem]	0.31	16-fold	4-fold	1.06	16-fold	No	0.06	0.25	0.25	0.125	
C/C(=C\C(=O)OCCCCCCCCC(=O)O)C[C@@H]1OC[C@H](C[C@@H]2O[C@H]2[C@@H](C)[C@H](C)O)[C@@H](O)[C@H]1O [Mupirocin]	0.75	2-fold	4-fold		No	No	> 128	> 256	0.25	0.125	
CCn1cc(C(=O)O)c(=O)c2cc(F)c(N3CCNCC3)cc21 [Norfloxacin]	0.5	4-fold	4-fold	1.13	No	8-fold	0.25	0.5	32	32	
